Results: US10440955B2, “Methods comprising a biocidal polyamine” (Curza Global, LLC, priority 2013, dated 2019)
In brackets after ≈: the same amount, converted by molar mass. Counter-ions that a name gives are not always drawn. Like-named read-outs stand apart in the source and are kept apart here.

How the values were obtained:
MRSA [1] = assay: MIC, 96-well CAMHB, 10^5 to 10^2 CFU/mL in 24 hours; format: cell-based, Staphylococcus aureus; conditions: Staphylococcus aureus, MRSA, read-out: MIC (MRSA)
Summary of the method: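 Compound exposure was 24 h at 37 °C in CAMHB with an inoculum of ~5×10^5 CFU/mL from a 0.5 McFarland; eight replicates per concentration.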

P. aeruginosa = assay: as above; format: cell-based, Pseudomonas aeruginosa; conditions: Pseudomonas aeruginosa
Summary of the method: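 Broth microdilution in CAMHB with about 5×10^5 CFU/mL inoculum, incubated 24 h at 37 °C with graded polyamine compound concentrations. Surviving CFU/mL determined by plating each well on TSA for 24 h at 37 °C; n=8 per concentration.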

human blood = assay: Hemolysis test with diluted human blood (ISO 10993-4); format: cell-based
Description: Procedure: The PBS used in testing was calcium and magnesium free. The method has been validated using human blood from one donor. This is in compliance with ISO 10993-4 which states due to differences in blood activity, human blood should be used where possible. Furthermore, pooling unmatched human blood from multiple donors may cause red blood cell agglutination which in turn could cause hemolysis; this supports the use of a single donor.
The blood was drawn using vacutainers containing 0.1 M sodium citrate at a ratio of 9:1 (3.2% anticoagulant to blood). The blood in this test was used within four hours of blood draw. The collected blood was refrigerated until testing was performed.
A hemoglobin standard was diluted with Drabkin's reagent to give solutions at concentrations of 0.80, 0.60, 0.40, 0.30, 0.20, 0.10, 0.02, and 0.01 mg/ml. These solutions were allowed to stand at room temperature for a minimum of five minutes. The absorbance was read on a spectrophotometer at 540 nanometers (nm). A standard curve was determined with the absorbance values and the standard concentrations of hemoglobin.
Human blood was centrifuged at 700-800×g for 15 minutes. A 1 mL aliquot of the plasma was added into 1 mL of Drabkin's reagent, and placed at room temperature for a minimum of 15 minutes. The absorbance was read on a spectrophotometer at 540 nm. The hemoglobin concentration was determined from the standard curve and then multiplied by a factor of 2 to obtain the total plasma free hemoglobin. The plasma free hemoglobin was less than 2 mg/mL (actual value 0.221 mg/mL). A 20 μL aliquot of blood was added to 5 mL of Drabkin's reagent in duplicate and allowed to stand at room temperature for a minimum of 15 minutes. The absorbance was read on a spectrophotometer at 540 nm then multiplied by 251 to account for the dilution.
Based on the plasma hemoglobin and the blood absorbance against Drabkin's reagent, the blood was diluted out to 10±1 mg/mL with PBS. To verify the blood dilution, a 300 μL aliquot of this blood was added to 4.5 mL of Drabkin's reagent in triplicate and allowed to stand at room temperature for a minimum of 15 minutes. The absorbance was read on a spectrophotometer at 540 nm then multiplied by 16 to account for the dilution.
Glass test tubes were labeled appropriately. Both samples were prepared the same way. The samples were allowed to thaw prior to testing. To each test tube, 7 mL of the test article and 1 mL of the diluted blood were added. The controls consisted of the appropriate amount of control material, 7 mL of PBS and 1 mL of blood. Three tubes were prepared for each test article and control. The tubes were incubated at 37±2° C. for 3 hours±5 minutes. Tubes were gently inverted twice at 30 minute intervals throughout the incubation period. A non-hemolytic negative control, a hemolytic positive control and a PBS blank were included.
After incubation, test articles were centrifuged at 700-800×g for 15 minutes and 1 mL of the supernatant fluid was combined with 1 mL of Drabkin's reagent and allowed to stand at room temperature for a minimum of 15 minutes. Following the centrifugation phase, the supernatant of both test articles visually appeared clear and were particulate free. The PBS blank and the negative control supernatant visually appeared clear and were particulate free. The supernatant of the positive control visually appeared red and were particulate free. The test articles and controls were read at 540 nm in a spectrophotometer.
The hemolytic index (percent hemolysis) was interpreted using the following equation:
[formula] Where: Hemoglobin Released (mg/mL)=(Optical Density×X Coefficient+Constant)×16 Hemoglobin Present (mg/ml)=Diluted Blood 10±1 mg/mL
The corrected hemolytic index was calculated by subtracting the hemolytic index of the PBS blank solution from the hemolytic index of the test article and controls. […]

A. baumannii = assay: MIC, 96-well CAMHB, 10^5 to 10^2 CFU/mL in 24 hours; format: cell-based, Acinetobacter baumannii; conditions: Acinetobacter baumannii, read-out: MIC (A. bumannii)
Experimental: To determine the MIC of polyamine compounds, the protocol described herein was used.
In brief, a 0.5 McFarland of each bacterial isolate was made. A 0.5 McFarland is a measure of turbidity in a liquid sample that contains approximately 1×10^∧8 CFU/mL. The 0.5 McFarland standard was diluted in cation adjusted Mueller Hinton Broth (CAMHB), and 50 μL of broth were added to a well of a 96-well plate. In addition, 50 μL of CAMHB that contained a desired concentration of antimicrobial were also added to the well for a final volume of 100 μL and a final concentration of approximately 5×10^4 CFU/well (which equated to approximately 5×10^5 CFU/mL). Each well contained a desired amount of polyamine compound in order to experimentally determine the MIC. Each 96-well plate was incubated at 37° C. for 24 hours. The contents of each well were plated on tryptic soy agar (TSA). TSA plates were incubated for 37° C. for 24 hours after which the number of CFU were counted and used to calculate the CFU/mL that remained after exposure to varying concentrations of compound. This procedure was repeated n=8 times for each concentration of antimicrobial.
A 0.5 McFarland of A. baumannii is made. A 0.5 McFarland is a measure of turbidity in a liquid sample that contains approximately 7.5×10^7 CFU/mL. The 0.5 McFarland standard is diluted in CAMHB and 50 μL of broth is added to a well of a 96-well plate. In addition, 50 μL of CAMHB that contains a desired concentration of antimicrobial is added to the well for a final volume of 100 μL and a final concentration of approximately 5×10^4 CFU/well (which equates to approximately 5×10^5 CFU/mL). Each well contains a desired amount of CZ compound in order to experimentally determine the MIC. Each 96-well plate is incubated at 37° C. for 24 hours. The contents of each well is plated on tryptic soy agar (TSA). TSA plates is incubated at 37° C. for 24 hours after which the number of CFUs is counted and used to calculate the CFU/mL that remain after exposure to varying concentrations of compound. This procedure is repeated n=8 times for each concentration of antimicrobial. […]

[2] = test system: various bacterial cell cultures; assay: Antimicrobial activity of polyamines in hydrogel on agar lawns; format: cell-based; conditions: 0.5% CZ compound in 0.5% sodium hyaluronate gel, 500 uL on TSA lawn, 37 C for 24 hours
Experimental: A 0.5 McFarland standard of each bacteria was made, then individual lawns of bacteria spread onto the surface of tryptic soy agar (TSA). 500 uL of the suspended gel were placed on the center of each lawn. Plates were incubated at 37 C for 24 hours, then imaged. Images of the resulting gels are shown in FIGS. 30A to 30I show the effects of the polyamines CZ-86, CZ-100, and CZ-110 on various bacterial cell cultures.
The hydrogel that was used for those images is a LifeCore gel with 1% sodium hyaluronate (1% Sodium Hyaluronate Solution Part #82). The CZ compound was suspended in water at 1% (w/w) concentration and combined with the LifeCore gel 1:1 for a final product that contained 0.5% sodium hyaluronate and 0.5% CZ compound.

L-929 cells (ATCC CCL-1) = assay: Minimal Essential Media (MEM) Elution cytotoxicity test; format: cell-based; conditions: Table 9A
Summary of the method: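 L-929 cells (ATCC CCL-1) were seeded in multiwell plates and grown to roughly 80% confluence. Test article dilutions (1:2, 1:4, 1:8, 1:16) and control extracts were applied in triplicate and incubated 48±3 hours at 37±1° C. in 5±1% CO2. Wells were scored microscopically for morphological cytotoxicity on a 0–4 scale and averaged; Pass required grade not greater than 2 per USP <87>.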

MRSA [3] = assay: MIC against MRSA (as defined by CLSI); format: cell-based; conditions: Staphylococcus aureus, FIG. 25
Experimental: To determine the MIC of the polyamine chains alone and the synthesized compounds against MRSA and P. aeruginosa ATCC 27853, a modified protocol from the Clinical and Laboratory Standards Institute (CLSI) guideline M26-A was used. […] All data was collected using cation adjusted MHB for standardization.
As mentioned, MRSA and P. aeruginosa ATCC 27853 were grown on Columbia blood agar plates prior to experimentation. From the blood agar plates, a 0.5 McFarland standard was made of each isolate. This equated to approximately 5×10^7 cells/mL for the MRSA isolate and approximately 3×10^7 cells/mL for the P. aeruginosa ATCC 27853 isolate. Of the 0.5 McFarland stock solution, 50 μL were added to MHB. […] All tests were performed such that a final volume of 5 mL of MHB were obtained. This provided a final bacterial concentration of approximately 5×10^5 cells/mL.
Each sample was incubated in glass test tubes at 37° C. for 24 hours, then plated in duplicate on tryptic soy agar (TSA) using a 10-fold dilution series. TSA plates were further incubated 24 hours at 37° C. The number of colony forming units (CFU) that grew were counted in order to calculate the number of bacteria that were present per mL in the original MHB solution.

[4] = read-out: MIC (P. aeruginosa), Table 5
[5] = Table 5, read-out: MIC (P. aeruginosa)

| MIC (MRSA [1]; Table 5) [µM] | MIC (P. aeruginosa; [5]) [µM] | Compound | MIC (MRSA [1]) [µM] | MIC (P. aeruginosa; [4]) [µM] | MIC (A. baumannii; Table 5) [µM] | also measured |
| --- | --- | --- | --- | --- | --- | --- |
| – | – | CCC(CC)COc1cc(CNCCCNCCCN)cc(CNCCCNCCCN)c1 [CZ-90, N^1,N^1′-((5-(2-ethylbutoxy)-1,3-phenylene)bis(methylene))bis(N^3-(3-aminopropyl)propane-1,3-diamine), hydrochloride salt] | < 50 | < 50 | – | Average Hemolytic Index (% Hemolysis) (human blood): 0.76 % Hemolysis; Hemolytic Grade (human blood): non-hemolytic; difference between the hemolytic indexes of test article and negative control (human blood): 0.00%; Average Optical Density (human blood; 540 nm): 0.003; Optical Density (human blood; 540 nm, three tubes, 37 ± 2° C., 3 hours): 0.003; Corrected Hemolytic Index (% Hemolysis) (human blood; hemolytic index of the PBS blank subtracted): 0.00 % Hemolysis; Hemolytic Index (human blood; three tubes): 0.764 |
| < 50 | < 50 | CCCCCCCCNCCCNCCCNCc1cc(CNCCCNCCCNCCCCCCCC)cc(OCC2CCCCC2)c1 [CZ-103, N^1,N^1′-((5-(cyclohexylmethoxy)-1,3-phenylene)bis(methylene))bis(N^3-(3-(octylamino)propyl)propane-1,3-diamine)] | – | – | < 50 | – |
| < 50 | > 100 | NCCCNCCCNCc1cc(CNCCCNCCCN)cc(-c2c(CNCCCNCCCN)cccc2CNCCCNCCCN)c1 [CZ-60] | – | – | > 100 | – |
| – | – | CCCCC(CC)COc1cc(CNCCCNCCCN)cc(CNCCCNCCCN)c1 (stereo not shown) [CZ-81, N^1,N^1′-((5-((2-ethylhexyl)oxy)-1,3-phenylene)bis(methylene))bis(N^3-(3-aminopropyl)propane-1,3-diamine), hydrochloride salt] | < 50 | < 50 | – | MIC (A. baumannii): < 50 µM |
| > 100 | > 100 | NCCCNCc1ccccc1 [CZ-4, N^1-benzylpropane-1,3-diamine] | – | – | – | MIC (MRSA [3]): > 1200 µg/mL |
| > 100 | 50 to 100 (≈ 12.5 to 25 µg/mL) | NCCCNCc1cccc(CNCCCN)c1 [CZ-12] | – | – | – | MIC (MRSA [3]): 300 µg/mL (≈ 1200 µM) |
| – | – | CCCCNCCCNCCCNCc1cc(CNCCCNCCCNCCCC)cc(-c2ccccc2)c1 [CZ-83, N^1,N^1′-([1,1′-biphenyl]-3,5-diylbis(methylene))bis(N^3-(3-(butylamino)propyl)propane-1,3-diamine), hydrochloride salt] | < 50 | < 50 | – | MIC (A. baumannii): < 50 µM |

| Compound | MIC (MRSA [1]; Table 5) [µM] | MIC (P. aeruginosa; [5]) [µM] | MIC (MRSA [1]) [µM] | MIC (P. aeruginosa; [4]) [µM] | MIC (A. baumannii; Table 5) [µM] | also measured |
| --- | --- | --- | --- | --- | --- | --- |
| CCCCCCCCNCCCNCCCNCc1cccc(CNCCCNCCCNCCCCCCCC)c1 [CZ-100, N^1,N^1′-(1,3-phenylenebis(methylene))bis(N^3-(3-(octylamino)propyl)propane-1,3-diamine)] | < 50 | < 50 | – | – | < 50 | zones of inhibition in bacterial lawns [2]: created zones of inhibition; Results Pass/Fail (L-929 cells (ATCC CCL-1); 3.125 μg/mL): Pass (receives a passing score (Pass) if the reactivity grade is not greater than grade 2 or a mild reactivity); Results Pass/Fail (L-929 cells (ATCC CCL-1); 6.25 μg/mL): Pass (receives a passing score (Pass) if the reactivity grade is not greater than grade 2 or a mild reactivity); Results Pass/Fail (L-929 cells (ATCC CCL-1); 12.5 μg/mL): Pass (receives a passing score (Pass) if the reactivity grade is not greater than grade 2 or a mild reactivity); Results Pass/Fail (L-929 cells (ATCC CCL-1); 25 μg/mL): Fail (a numerical grade greater than 2 is considered a cytotoxic effect, or a failing score (Fail)); Results Pass/Fail (L-929 cells (ATCC CCL-1); 1.563 (unit not given)): Pass (receives a passing score (Pass) if the reactivity grade is not greater than grade 2 or a mild reactivity) |
| NCCCNCCCNCc1cc(CNCCCNCCCN)cc(CNCCCNCCCN)c1 [CZ-55] | < 50 | < 50 | – | – | > 100 | – |
| CCCCCCCCNCCCNCCCNCc1cc(CNCCCNCCCNCCCCCCCC)cc(OCCCNCC(C)C)c1 [CZ-110, N^1,N^1′-((5-(3-(isobutylamino)propoxy)-1,3-phenylene)bis(methylene))bis(N^3-(3-(octylamino)propyl)propane-1,3-diamine)] | < 50 | < 50 | – | – | < 50 | zones of inhibition in bacterial lawns [2]: created zones of inhibition |
